Source: patent US7211572B2 (Japan Tobacco Inc., priority 2003, dated 2007)
pIC50: −log10 of the molar value. Structures can show the parent of a compound that is named as a salt.

Target: T1, HIV integrase (Human immunodeficiency virus type 1 group M subtype B, UniProt P12497, F1332H)
T1 construct: HIV integrase full length gene; made in house; host or cells: Escherichia coli BL21(DE3), plasmid pET21a-INH
Test: Determination of enzyme (HIV integrase) inhibitory activity
Type: biochemical
Conditions: recombinant HIV integrase (F185H), strand transfer ELISA, absorbance at 450 nm
Summary of the method: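 Full-length integrase with F185H, expressed in E. coli and purified, was reacted for 60 min at 37 °C with compound and biotinylated donor DNA bound to streptavidin plates. Target DNA was added for 10 min, then anti-digoxigenin-peroxidase detection at A450; IC50 from % inhibition versus enzyme-free blank.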

Row | Compound | pIC50
1 | CC(=O)CNC(=O)c1cn2c(c(O)c1=O)C(=O)N(Cc1cccc(Cl)c1)CC2 [Example 374, N-(2-oxopropyl)-2-(3-chlorobenzyl)-9-hydroxy-1,8-dioxo-1,3,4,8-tetrahydro-2H-pyrido[1,2-a]pyrazine-7-carboxamide hydrochloride] | 7.00 to 8.00
2 | O=c1c(-c2ccncc2)cn2ccn(Cc3cccc(F)c3)c(=O)c2c1O [Example 375, 2-(3-fluorobenzyl)-9-hydroxy-7-(pyridin-4-yl)-2H-pyrido[1,2-a]pyrazine-1,8-dione hydrochloride] | 7.00 to 8.00
3 | CC(C)(C)C(=O)c1cn2ccn(Cc3cccc(F)c3)c(=O)c2c(O)c1=O [Example 376, 7-(2,2-dimethylpropionyl)-2-(3-fluorobenzyl)-9-hydroxy-2H-pyrido[1,2-a]pyrazine-1,8-dione hydrochloride] | 7.00 to 8.00
4 | O=C(NCc1ccccc1F)c1cn2c(c(O)c1=O)C(=O)N(Cc1ccc(F)cc1)CC2 [Example 377, N-(2-fluorobenzyl)-2-(4-fluorobenzyl)-9-hydroxy-1,8-dioxo-1,3,4,8-tetrahydro-2H-pyrido[1,2-a]pyrazine-7-carboxamide] | > 8.00
5 | O=C(NCc1ccc(F)cc1)c1cn2c(c(O)c1=O)C(=O)N(Cc1ccc(F)cc1)CC2 [Example 378, N-(4-fluorobenzyl)-2-(4-fluorobenzyl)-9-hydroxy-1,8-dioxo-1,3,4,8-tetrahydro-2H-pyrido[1,2-a]pyrazine-7-carboxamide] | > 8.00
6 | CNC(=O)c1cn2c(c(O)c1=O)C(=O)N(Cc1ccc(F)cc1)CC2 [Example 379] | 6.00 to 7.00
7 | O=C(NCc1ccccc1)c1cn2c(c(O)c1=O)C(=O)N(Cc1ccc(F)cc1)CC2 [Example 380, N-benzyl-2-(4-fluorobenzyl)-9-hydroxy-1,8-dioxo-1,3,4,8-tetrahydro-2H-pyrido[1,2-a]pyrazine-7-carboxamide] | 7.00 to 8.00
8 | CNC(=O)c1cn2c(c(O)c1=O)C(=O)N(Cc1ccc(Cl)cc1)CC2 [Example 381, N-methyl-2-(4-chlorobenzyl)-9-hydroxy-1,8-dioxo-1,3,4,8-tetrahydro-2H-pyrido[1,2-a]pyrazine-7-carboxamide] | 7.00 to 8.00
9 | CCC(C)(C)C(=O)c1cn2ccn(Cc3ccc(F)cc3)c(=O)c2c(O)c1=O [Example 382, 7-(2,2-dimethylbutyryl)-2-(4-fluorobenzyl)-9-hydroxy-2H-pyrido[1,2-a]pyrazine-1,8-dione hydrochloride] | 7.00 to 8.00
10 | O=C1c2c(O)c(=O)c(-c3cnccn3)cn2CCN1Cc1ccc(Cl)c(Cl)c1 [Example 383, 2-(3,4-dichlorobenzyl)-9-hydroxy-7-(pyrazin-2-yl)-3,4-dihydro-2H-pyrido[1,2-a]pyrazine-1,8-dione hydrochloride] | 7.00 to 8.00
11 | CC(C)C(=O)c1cn2c(c(O)c1=O)C(=O)N(Cc1ccc(Cl)c(Cl)c1)CC2 [Example 384, 2-(3,4-dichlorobenzyl)-9-hydroxy-7-isobutyryl-3,4-dihydro-2H-pyrido[1,2-a]pyrazine-1,8-dione] | > 8.00
12 | CC(C)C(=O)c1cn2c(c(O)c1=O)C(=O)N(Cc1ccc(F)cc1)CC2 [Example 385, 2-(4-fluorobenzyl)-9-hydroxy-7-isobutyryl-3,4-dihydro-2H-pyrido[1,2-a]pyrazine-1,8-dione] | 7.00 to 8.00
13 | CC(C)(C)C(=O)c1cn2c(c(O)c1=O)C(=O)N(Cc1ccc(F)cc1)CC2 [Example 386, 7-(2,2-dimethylpropionyl)-2-(4-fluorobenzyl)-9-hydroxy-3,4-dihydro-2H-pyrido[1,2-a]pyrazine-1,8-dione] | 7.00 to 8.00
14 | CC(C)CC(=O)c1cn2ccn(Cc3ccc(F)cc3)c(=O)c2c(O)c1=O [Example 387, 2-(4-fluorobenzyl)-9-hydroxy-7-(3-methylbutyryl)-2H-pyrido[1,2-a]pyrazine-1,8-dione hydrochloride] | 7.00 to 8.00
15 | CNC(=O)c1cn2c(c(O)c1=O)C(=O)N(Cc1ccc(F)c(F)c1)CC2 [Example 388, N-methyl-2-(3,4-difluorobenzyl)-9-hydroxy-1,8-dioxo-1,3,4,8-tetrahydro-2H-pyrido[1,2-a]pyrazine-7-carboxamide] | 6.00 to 7.00
16 | COCC(C)(C)C(=O)c1cn2c(c(O)c1=O)C(=O)N(Cc1ccc(F)cc1)CC2 [Example 389, 2-(4-fluorobenzyl)-9-hydroxy-7-(3-methoxy-2,2-dimethylpropionyl)-3,4-dihydro-2H-pyrido[1,2-a]pyrazine-1,8-dione] | 7.00 to 8.00
17 | O=c1c(-c2ccncn2)cn2ccn(Cc3cccc(Cl)c3)c(=O)c2c1O [Example 391, 2-(3-chlorobenzyl)-9-hydroxy-7-(pyrimidin-4-yl)-2H-pyrido[1,2-a]pyrazine-1,8-dione hydrochloride] | 7.00 to 8.00
18 | O=C1c2c(O)c(=O)c(-c3ccncn3)cn2CCN1Cc1ccc(F)cc1 [Example 392, 2-(4-fluorobenzyl)-9-hydroxy-7-(pyrimidin-4-yl)-3,4-dihydro-2H-pyrido[1,2-a]pyrazine-1,8-dione hydrochloride] | 7.00 to 8.00

Row | Compound | pIC50
19 | O=C1c2c(O)c(=O)c(-c3ccncn3)cn2CCN1Cc1ccc(Cl)cc1 [Example 393, 2-(4-chlorobenzyl)-9-hydroxy-7-(pyrimidin-4-yl)-3,4-dihydro-2H-pyrido[1,2-a]pyrazine-1,8-dione hydrochloride] | 7.00 to 8.00
20 | O=C1c2c(O)c(=O)c(-c3ccncn3)cn2CCN1Cc1ccc(F)c(Cl)c1 [Example 394, 2-(3-chloro-4-fluorobenzyl)-9-hydroxy-7-(pyrimidin-4-yl)-3,4-dihydro-2H-pyrido[1,2-a]pyrazine-1,8-dione hydrochloride] | 7.00 to 8.00
21 | O=c1c(-c2ccncn2)cn2ccn(Cc3ccc(F)c(Cl)c3)c(=O)c2c1O [Example 395, 2-(3-chloro-4-fluorobenzyl)-9-hydroxy-7-(pyrimidin-4-yl)-2H-pyrido[1,2-a]pyrazine-1,8-dione hydrochloride] | > 8.00
22 | CCCOc1cc(Cl)cc(CN2CCn3cc(-c4nccs4)c(=O)c(O)c3C2=O)c1 [Example 396, 2-(3-chloro-5-propoxybenzyl)-9-hydroxy-7-(thiazol-2-yl)-3,4-dihydro-2H-pyrido[1,2-a]pyrazine-1,8-dione hydrochloride] | 7.00 to 8.00
23 | CC(C)Oc1cc(Cl)cc(CN2CCn3cc(-c4nccs4)c(=O)c(O)c3C2=O)c1 [Example 397, 2-(3-chloro-5-isopropoxybenzyl)-9-hydroxy-7-(thiazol-2-yl)-3,4-dihydro-2H-pyrido[1,2-a]pyrazine-1,8-dione hydrochloride] | 7.00 to 8.00
24 | O=C1c2c(O)c(=O)c(-c3nccs3)cn2CCN1Cc1cc(Cl)cc(OCc2ccccc2)c1 [Example 398, 2-(3-benzyloxy-5-chlorobenzyl)-9-hydroxy-7-(thiazol-2-yl)-3,4-dihydro-2H-pyrido[1,2-a]pyrazine-1,8-dione hydrochloride] | 7.00 to 8.00
25 | O=c1c(-c2ccncn2)cn2ccn(Cc3ccc(Cl)cc3)c(=O)c2c1O [Example 399, 2-(4-chlorobenzyl)-9-hydroxy-7-(pyrimidin-4-yl)-2H-pyrido[1,2-a]pyrazine-1,8-dione hydrochloride] | > 8.00
26 | O=C(Cc1cccnc1)Nc1cn2ccn(Cc3cccc(Cl)c3)c(=O)c2c(O)c1=O [Example 400, N-[2-(3-chlorobenzyl)-9-hydroxy-1,8-dioxo-1,8-dihydro-2H-pyrido[1,2-a]pyrazin-7-yl]-2-(pyridin-3-yl)acetamide hydrochloride] | > 8.00
27 | O=C(Cc1ccncc1)Nc1cn2ccn(Cc3cccc(Cl)c3)c(=O)c2c(O)c1=O [Example 401, N-[2-(3-chlorobenzyl)-9-hydroxy-1,8-dioxo-1,8-dihydro-2H-pyrido[1,2-a]pyrazin-7-yl]-2-(pyridin-4-yl)acetamide hydrochloride] | 7.00 to 8.00
28 | O=C(Cc1ccccn1)Nc1cn2ccn(Cc3cccc(Cl)c3)c(=O)c2c(O)c1=O [Example 402, N-[2-(3-chlorobenzyl)-9-hydroxy-1,8-dioxo-1,8-dihydro-2H-pyrido[1,2-a]pyrazin-7-yl]-2-(pyridin-2-yl)acetamide hydrochloride] | 7.00 to 8.00
29 | O=c1c(-c2ccncn2)cn2ccn(Cc3cccc(F)c3)c(=O)c2c1O [Example 403, 2-(3-fluorobenzyl)-9-hydroxy-7-(pyrimidin-4-yl)-2H-pyrido[1,2-a]pyrazine-1,8-dione hydrochloride] | 7.00 to 8.00
30 | O=c1c(-c2cnccn2)cn2ccn(Cc3cccc(F)c3)c(=O)c2c1O [Example 404, 2-(3-fluorobenzyl)-9-hydroxy-7-(pyrazin-2-yl)-2H-pyrido[1,2-a]pyrazine-1,8-dione hydrochloride] | 7.00 to 8.00
31 | Cn1ncnc1-c1cn2ccn(Cc3ccc(F)c(Cl)c3)c(=O)c2c(O)c1=O [Example 405, 2-(3-chloro-4-fluorobenzyl)-9-hydroxy-7-(2-methyl-2H-1,2,4-triazol-3-yl)-2H-pyrido[1,2-a]pyrazine-1,8-dione hydrochloride] | > 8.00
32 | CC(C)(C)CC(=O)Nc1cn2c(c(O)c1=O)C(=O)N(Cc1ccc(F)c(Cl)c1)CC2 [Example 406, N-[2-(3-chloro-4-fluorobenzyl)-9-hydroxy-1,8-dioxo-1,3,4,8-tetrahydro-2H-pyrido[1,2-a]pyrazin-7-yl]-3,3-dimethylbutyramide] | 7.00 to 8.00
33 | Cc1cn(Cc2cccc(F)c2)c(=O)c2c(O)c(=O)c(-c3ccccn3)cn12 [Example 407, 2-(3-fluorobenzyl)-9-hydroxy-4-methyl-7-(pyridin-2-yl)-2H-pyrido[1,2-a]pyrazine-1,8-dione hydrochloride] | 7.00 to 8.00
34 | Cc1cn(Cc2ccc(F)cc2)c(=O)c2c(O)c(=O)c(C(=O)C(C)(C)C)cn12 [Example 408, 7-(2,2-dimethylpropionyl)-2-(4-fluorobenzyl)-9-hydroxy-4-methyl-2H-pyrido[1,2-a]pyrazine-1,8-dione hydrochloride] | 7.00 to 8.00
35 | COCc1c(C(=O)C(C)(C)C)c(=O)c(O)c2n1CCN(Cc1ccc(F)cc1)C2=O [Example 409, 7-(2,2-dimethylpropionyl)-2-(4-fluorobenzyl)-9-hydroxy-6-methoxymethyl-3,4-dihydro-2H-pyrido[1,2-a]pyrazine-1,8-dione hydrochloride] | 7.00 to 8.00
